Experimental data: patent US7368578B2, “Five-membered heterocyclic compounds” (Takeda Pharmaceutical Company Limited, priority 2002, dated 2008)

What follows are compounds tested against T1, human PPARγ1 (Homo sapiens, UniProt P37231) (assay: Measurement of human PPARγ1 binding activity ([3H]-compound A displacement)). Conditions: cell extract with 1.5 μg/ml full length hPPARγ1, 20 nM [3H]-compound A, 4° C., 16 hrs.
T1 construct: made in house; host or cells: COS-1 cells transiently transfected with pMCMVneo-hPPARγ; crude supernatant of the lysate, not purified
T1 sequence (P37231 1-477 isoform P37231-2): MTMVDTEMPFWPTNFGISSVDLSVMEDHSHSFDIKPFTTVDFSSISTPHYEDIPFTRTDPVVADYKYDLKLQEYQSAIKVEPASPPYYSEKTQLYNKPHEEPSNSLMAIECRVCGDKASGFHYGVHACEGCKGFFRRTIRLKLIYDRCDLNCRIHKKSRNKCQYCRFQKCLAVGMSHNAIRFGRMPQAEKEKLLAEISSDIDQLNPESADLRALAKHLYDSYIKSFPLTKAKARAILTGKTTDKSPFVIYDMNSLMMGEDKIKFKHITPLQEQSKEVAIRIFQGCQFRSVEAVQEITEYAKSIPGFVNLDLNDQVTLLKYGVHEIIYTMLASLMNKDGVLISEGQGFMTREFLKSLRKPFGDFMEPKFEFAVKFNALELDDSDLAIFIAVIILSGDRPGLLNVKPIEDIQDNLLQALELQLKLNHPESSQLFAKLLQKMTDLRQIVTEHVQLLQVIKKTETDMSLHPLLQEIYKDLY
Method: A cell extract containing 1.5 μg/ml of full length hPPARγ1 prepared in Reference Example 7a, 20 nM [^3H]-compound A (16 Ci/mmol)(Amersham Pharmacia Biotech) and a test compound were reacted in TEGM buffer at 4° C. for 16 hrs. To the reaction mixture was added activated carbon (Sigma) coated with 140 μl of dextran (Amersham Pharmacia Biotech) and gelatin (Sigma), and the mixture was left standing at 4° C. for 10 min and centrifuged at 910×g for 10 min. After centrifugation, the radioactivity of 30 μl of supernatant was measured with Topcount (Packard). In addition, a test similar to the above was conducted for the non-use of the aforementioned test compound and for the use of 100 μM of compound A instead of the aforementioned test compound, and the radioactivity was determined.
The human PPARγ1 binding activity of the test compound was evaluated using percentages wherein the measured value of the radioactivity when 20 nM [^3H]-compound A alone was added was 100%, and the measured value of the radioactivity when 20 nM [^3H]-compound A and 100 μM of compound A were simultaneously added was 0%. Moreover, the IC50 value of the test compound was calculated based on the analysis of the compound concentration and the percentage using PRISM3.0 (Graph Pad, Inc.).
COS-1 cells were seeded in a 150 cm^2 tissue culture flask (Corning Inc.) at 5×10^6 cells, and cultured under 37° C. 5% CO2 conditions for 24 hrs. Transfection was performed using lipofectamine (GIBCO BRL). To be specific, 125 μl of lipofectamine, 100 μl of PLUS Reagent and 15 μg of hPPARγ expression plasmid (plasmid pMCMVneo-hPPARγ obtained in Reference Example 6a) were mixed with opti-MEM (GIBCO BRL) to give a transfection mixture. The transfection mixture (25 ml) was added to COS-1 cells and the cells were cultured under 37° C. 5% CO2 conditions for 3 hrs. Then 25 ml of DMEM medium (Nikken Biomedical Laboratory) containing 10% FCS treated with activated carbon (Sigma) was added to the cells and the cells were cultured under 37° C. 5% CO2 conditions. After 24 hrs., the medium was substituted with 50 ml of DMEM medium (Nikken Biomedical Laboratory) containing 5% FCS treated with activated carbon, and the cells were cultured under 37° C., 5% CO2 conditions. After 48 hrs, the transfected cells were recovered and washed with TEG buffer (10 mM Tris-HCl (pH 7.2), 50 mM EDTA, 10% glycerol). The cells were suspended in 1 ml TEGM buffer (10 mM Tris-HCl (pH 7.2), 1 mM EDTA, 10% glycerol, 7 μl/100 ml β-mercaptoethanol, 10 mM Na molybdate, 1 mM dithiothreitol, 2 tablets/100 ml Protease inhibitor Cocktail tablets (Boehringer Mannheim)) and, for cell lysis, frozen with liquid nitrogen and thawed on ice. To remove the debris of the cells, the extract was centrifuged at 228,000×g, 4° C. for 20 min. and the supernatant was preserved at −80° C. until use.
`Cc1oc(-c2ccco2)nc1COc1ccc(COc2nn(Cc3ccccc3)cc2C=O)cn1` [Example 42, 1-benzyl-3-[(6-{[2-(2-furyl)-5-methyl-1,3-oxazol-4-yl]methoxy}-3-pyridinyl)methoxy]-1H-pyrazole-4-carbaldehyde] showed an IC50 of 1100 nM.
Work on `CCOC(=O)c1cn(-c2ccccc2)nc1OCc1ccc(OCc2nc(-c3ccco3)oc2C)c(OC)c1` [Example 72, ethyl 3-[(4-{[2-(2-furyl)-5-methyl-1,3-oxazol-4-yl]methoxy}-3-methoxybenzyl)oxy]-1-phenyl-1H-pyrazole-4-carboxylate] yielded an IC50 of 770 nM.
`COc1cc(COc2nn(-c3ccccc3)cc2CO)ccc1OCc1nc(-c2ccco2)oc1C` [Example 75, {3-[(4-{[2-(2-furyl)-5-methyl-1,3-oxazol-4-yl]methoxy}-3-methoxybenzyl)oxy]-1-phenyl-1H-pyrazol-4-yl}methanol] showed an IC50 of 660 nM.
In the case of `COc1cc(COc2nn(-c3ccccc3)cc2C=O)ccc1OCc1nc(-c2ccco2)oc1C` [Example 76, 3-[(4-{[2-(2-furyl)-5-methyl-1,3-oxazol-4-yl]methoxy}-3-methoxybenzyl)oxy]-1-phenyl-1H-pyrazole-4-carbaldehyde], the IC50 is reported as 190 nM.
Work on `COc1cc(COc2nn(-c3ccccc3)cc2C#N)ccc1OCc1nc(-c2ccco2)oc1C` [Example 77, 3-[(4-{[2-(2-furyl)-5-methyl-1,3-oxazol-4-yl]methoxy)-3-methoxybenzyl)oxy]-1-phenyl-1H-pyrazole-4-carbonitrile] yielded an IC50 of 79 nM.
Compound `CCOP(=O)(CCc1cn(-c2ccccc2)nc1OCc1ccc(OCc2nc(-c3ccco3)oc2C)c(OC)c1)OCC` [Example 100, diethyl 2-{3-[(4-{[2-(2-furyl)-5-methyl-1,3-oxazol-4-yl]methoxy}-3-methoxybenzyl)oxy]-1-phenyl-1H-pyrazol-4-yl}ethylphosphonate] has an IC50 of 210 nM.
With `CCOP(=O)(/C=C/c1cn(-c2ccccc2)nc1OCc1ccc(OCc2nc(-c3ccco3)oc2C)c(OC)c1)OCC` [Example 116 (E form), diethyl (E)-2-{3-[(4-{[2-(2-furyl)-5-methyl-1,3-oxazol-4-yl]methoxy}-3-methoxybenzyl)oxy]-1-phenyl-1H-pyrazol-4-yl}ethenylphosphonate] the IC50 was 39 nM.
`COc1cc(COc2nn(-c3ccccc3)cc2/C=C/P(=O)(OC(C)C)OC(C)C)ccc1OCc1nc(-c2ccco2)oc1C` [Example 145, diisopropyl (E)-2-{3-[(4-{[2-(2-furyl)-5-methyl-1,3-oxazol-4-yl]methoxy}-3-methoxybenzyl)oxy]-1-phenyl-1H-pyrazol-4-yl}ethenylphosphonate] showed an IC50 of 80 nM.
`CCOP(=O)(/C=C/c1cn(-c2ccccc2)nc1OCc1ccc(OCc2nc(-c3ccccc3)oc2C)c(OC)c1)OCC` [Example 146, diethyl (E)-2-[3-({3-methoxy-4-[(5-methyl-2-phenyl-1,3-oxazol-4-yl)methoxy]benzyl}oxy)-1-phenyl-1H-pyrazol-4-yl]ethenylphosphonate] was tested, and the IC50 was 68 nM.
Work on `COc1cc(COc2nn(-c3ccccc3)cc2/C=C/c2csc(C)n2)ccc1OCc1nc(-c2ccco2)oc1C` [Example 150 (E form), 2-(2-furyl)-4-({2-methoxy-4-[({4-[(E)-2-(2-methyl-1,3-thiazol-4-yl)ethenyl]-1-phenyl-1H-pyrazol-3-yl}oxy)methyl]phenoxy}methyl)-5-methyl-1,3-oxazole] yielded an IC50 of 50 nM.
`CCC(=O)/C=C/c1cn(-c2ccccc2)nc1OCc1ccc(OCc2nc(-c3ccco3)oc2C)c(OC)c1` [Example 156, (1E)-1-{3-[(4-{[2-(2-furyl)-5-methyl-1,3-oxazol-4-yl]methoxy}-3-methoxybenzyl)oxy]-1-phenyl-1H-pyrazol-4-yl}-1-penten-3-one] was tested, and the IC50 was 7300 nM.
`CCOP(=O)(/C=C/c1cn(-c2ccccc2)nc1OCc1ccc(OCc2csc(N3CCOCC3)n2)c(OC)c1)OCC` [Example 191, diethyl (E)-2-{3-[(3-methoxy-4-{[2-(morpholin-4-yl)-1,3-thiazol-4-yl]methoxy}benzyl)oxy]-1-phenyl-1H-pyrazol-4-yl}ethenylphosphonate] showed an IC50 of 810 nM.
`CCOP(=O)(/C=C/c1cn(-c2ccccc2)nc1OCc1ccc(OCc2nc(-c3cccc(C(=O)O)c3)oc2C)c(OC)c1)OCC` [Example 203, 3-[4-({4-[({4-[(E)-2-(diethoxyphosphoryl)ethenyl]-1-phenyl-1H-pyrazol-3-yl}oxy)methyl]-2-methoxyphenoxy}methyl)-5-methyl-1,3-oxazol-2-yl]benzoic acid] gave an IC50 of 4.8 nM.
With `CCOP(=O)(/C=C/c1cn(-c2ccccc2)nc1OCc1ccc(OCc2nc(-c3cccc(C(=O)OC)c3)oc2C)c(OC)c1)OCC` [Example 211, methyl 3-[4-({4-[({4-[(E)-2-(diethoxyphosphoryl)ethenyl]-1-phenyl-1H-pyrazol-3-yl}oxy)methyl]-2-methoxyphenoxy}methyl)-5-methyl-1,3-oxazol-2-yl]benzoate] the IC50 was 27 nM.
`CCc1nc(/C=C/c2cn(-c3ccccc3)nc2OCc2ccc(OCc3nc(-c4cccc(C(=O)O)c4)oc3C)c(OC)c2)cs1` [Example 224, 3-[4-({4-[({4-[(E)-2-(2-ethyl-1,3-thiazol-4-yl)ethenyl]-1-phenyl-1H-pyrazol-3-yl}oxy)methyl]-2-methoxyphenoxy}methyl)-5-methyl-1,3-oxazol-2-yl]benzoic acid] was tested, and the IC50 was 3.6 nM.
For `CCOP(=O)(/C=C/c1cn(-c2ccccc2)nc1OCc1ccc(OCc2nc(-c3cccc(C(N)=O)c3)oc2C)c(OC)c1)OCC` [Example 239, diethyl (E)-2-(3-{[4-({2-[3-(carbamoyl)phenyl]-5-methyl-1,3-oxazol-4-yl}methoxy)-3-methoxybenzyl]oxy}-1-phenyl-1H-pyrazol-4-yl)ethenylphosphonate], the IC50 was 61 nM.
`CCOP(=O)(/C=C/c1cn(-c2ccccc2)nc1OCc1ccc(OCc2nc(-c3ccc(CC(=O)O)cc3)oc2C)c(OC)c1)OCC` [Example 241, {4-[4-({4-[({4-[(E)-2-(diethoxyphosphoryl)ethenyl]-1-phenyl-1H-pyrazol-3-yl}oxy)methyl]-2-methoxyphenoxy}methyl)-5-methyl-1,3-oxazol-2-yl]phenyl}acetic acid] gave an IC50 of 69 nM.
`CCOP(=O)(/C=C/c1cn(-c2ccccc2)nc1OCc1ccc(OCc2nc(-c3cccc(CC(=O)O)c3)oc2C)c(OC)c1)OCC` [Example 249, {3-[4-({4-[({4-[(E)-2-(diethoxyphosphoryl)ethenyl]-1-phenyl-1H-pyrazol-3-yl}oxy)methyl]-2-methoxyphenoxy}methyl)-5-methyl-1,3-oxazol-2-yl]phenyl}acetic acid] gave an IC50 of 33 nM.
Compound `CCOP(=O)(/C=C/c1cn(-c2ccccc2)nc1OCc1ccc(OCc2nc(-c3ccc(OC)c(C(=O)O)c3)oc2C)c(OC)c1)OCC` [Example 252, 5-{4-({4-[({4-[(E)-2-(diethoxyphosphoryl)ethenyl]-1-phenyl-1H-pyrazol-3-yl}oxy)methyl]-2-methoxyphenoxy}methyl)-5-methyl-1,3-oxazol-2-yl}-2-methoxybenzoic acid] has an IC50 of 23 nM.
`COc1cc(COc2nn(-c3ccccc3)cc2/C=C/C#N)ccc1OCc1nc(-c2ccccc2)oc1C` [Example 282, (E)-3-(3-{[3-methoxy-4-(5-methyl-2-phenyl-1,3-oxazol-4-ylmethoxy)benzyl]oxy}-1-phenyl-1H-pyrazol-4-yl)-2-propenonitrile] was tested, and the IC50 was 120 nM.
With `CCOC(=O)/C=C/c1cn(-c2ccccc2)nc1OCc1ccc(OCc2nc(-c3ccccc3)oc2C)c(OC)c1` [Example 284, ethyl (E)-3-(3-{[3-methoxy-4-(5-methyl-2-phenyl-1,3-oxazol-4-ylmethoxy)benzyl]oxy}-1-phenyl-1H-pyrazol-4-yl)-2-propenoate] the IC50 was 75 nM.
